# Experimental data as given in patent US20130216498A1, “IMIDAZOPYRIDINE DERIVATIVES AS JAK INHIBITORS” (priority 2009, published 2013).
# Key:
# Format in all cases: biochemical
# [1] = molecular target: T1, human JAK2 (aa 826-1132) catalytic domain (Homo sapiens, UniProt O60674); assay: In vitro JAK kinase assay (TR-FRET), JAK2; details: GST-fusion catalytic domain; ATP 0.2 μM; poly (GT)-Biotin 20 nM; 30 minutes at room temperature
# T1 construct: JAK2 (aa 826-1132); GST (N); purchased Carna Biosciences; host or cells: baculovirus expression system
# Experimental: (§1) Compounds were screened for their ability to inhibit JAK1, JAK2 and JAK3 using the assays as indicated below.
# (§2) The catalytic domains of human JAK1 (aa 850-1154), JAK2 (aa 826-1132), JAK3 (aa 795-1124) and Tyk2 (aa 871-1187) were expressed as N-terminal GST-fusion proteins using a baculovirus expression system and were purchased from Carna Biosciences. The enzymatic activity was assayed using as substrate a biotinylated peptide, poly (GT)-Biotin (CisBio). The peptide concentration in the reactions was 60 nM for JAK1, 20 nM for JAK2, 140 nM for JAK3 and 50 nM for Tyk2. The degree of phosphorylation was detected by TR-FRET (time-resolved fluorescence energy transfer).
# (§3) IC50s of compounds were measured for each kinase in a reaction mixture containing the enzyme, ATP and the peptide in 8 mM MOPS (pH 7.0), 10 mM MgCl2, 0.05% β-mercaptoethanol, 0.45 mg/mL BSA. The ATP concentration in the reactions was 3 μM for JAK1, 0.2 μM for JAK2, 0.6 μM for JAK3 and 1.8 μM for Tyk2. The enzymatic reactions took place for 30 minutes at room temperature. Then, the reactions were stopped with 20 μL of quench detection buffer (50 mM HEPES, 0.5 M KF, EDTA 0.25 M, 0.1% (w/v) BSA, pH 7.5) containing 0.115 μg/mL of anti-phosphoTyr (PT66)-Cryptate (CisBio) and a variable concentration of SA-XL665 (CisBio) to keep the SA-B ratio constant. Incubate for 3 h and read on Victor 2V spectrofluorometer (PerkinElmer) set to read fluorescence resonance energy transfer.
# [2] = molecular target: T2, human JAK1 (aa 850-1154) catalytic domain (Homo sapiens, UniProt P23458); assay: In vitro JAK kinase assay (TR-FRET), JAK1; details: GST-fusion catalytic domain; ATP 3 μM; poly (GT)-Biotin 60 nM; 30 minutes at room temperature
# T2 construct: human JAK1 (aa 850-1154); GST (N); purchased Carna Biosciences; host or cells: baculovirus expression system
# Experimental: as §1, §2, §3
# [3] = molecular target: T3, human JAK3 (aa 795-1124) catalytic domain (Homo sapiens, UniProt P52333); assay: In vitro JAK kinase assay (TR-FRET), JAK3; details: GST-fusion catalytic domain; ATP 0.6 μM; poly (GT)-Biotin 140 nM; 30 minutes at room temperature
# T3 construct: JAK3 (aa 795-1124); GST (N); purchased Carna Biosciences; host or cells: baculovirus expression system
# Experimental: as §1, §2, §3
# T1 sequence (O60674 826-1132): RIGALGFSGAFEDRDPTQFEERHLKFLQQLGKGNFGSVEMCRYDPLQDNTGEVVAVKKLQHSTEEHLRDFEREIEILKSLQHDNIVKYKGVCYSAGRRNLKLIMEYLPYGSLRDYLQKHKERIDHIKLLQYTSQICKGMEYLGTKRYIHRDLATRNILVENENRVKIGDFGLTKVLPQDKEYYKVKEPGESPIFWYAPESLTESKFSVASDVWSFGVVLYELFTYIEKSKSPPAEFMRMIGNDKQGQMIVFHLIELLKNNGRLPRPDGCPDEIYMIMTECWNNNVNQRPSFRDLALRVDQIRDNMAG
# T2 sequence (P23458 850-1154): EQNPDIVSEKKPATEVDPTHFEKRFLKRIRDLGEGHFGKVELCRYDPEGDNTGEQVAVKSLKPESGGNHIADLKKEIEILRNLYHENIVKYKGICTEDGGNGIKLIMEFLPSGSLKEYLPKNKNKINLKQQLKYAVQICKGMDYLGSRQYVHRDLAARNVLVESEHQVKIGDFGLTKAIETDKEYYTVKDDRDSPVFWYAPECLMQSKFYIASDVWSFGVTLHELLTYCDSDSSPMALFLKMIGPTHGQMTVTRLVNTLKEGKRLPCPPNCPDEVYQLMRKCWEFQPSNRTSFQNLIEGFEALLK
# T3 sequence (P52333 795-1124): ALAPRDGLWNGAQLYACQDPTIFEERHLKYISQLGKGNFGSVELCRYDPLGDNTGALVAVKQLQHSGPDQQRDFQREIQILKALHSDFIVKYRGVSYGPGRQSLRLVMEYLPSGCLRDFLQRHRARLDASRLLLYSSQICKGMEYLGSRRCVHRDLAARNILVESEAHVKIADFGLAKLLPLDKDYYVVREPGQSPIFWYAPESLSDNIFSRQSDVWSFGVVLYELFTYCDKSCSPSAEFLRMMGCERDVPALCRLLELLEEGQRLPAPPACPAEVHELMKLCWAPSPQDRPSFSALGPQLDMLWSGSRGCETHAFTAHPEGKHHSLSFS
SMILES,IC50 [1] [nM],IC50 [2] [nM],IC50 [3] [nM]
"N#CCC(=O)N1CCC[C@@H](Nc2ccnc(-c3cnc4ccc(F)cn34)n2)C1 [Example 64, 3-((3R)-3-{[2-(6-Fluoroimidazo[1,2-a]pyridin-3-yl)pyrimidin-4-yl]amino}piperidin-1-yl)-3-oxopropanenitrile]",< 100,< 100,< 100
"C[C@H](Nc1ccnc(-c2cnc3ccc(C#N)cn23)n1)c1ccccc1 [Example 1, 3-(4-{[(1S)-1-Phenylethyl]amino}pyrimidin-2-yl)imidazo[1,2-a]pyridine-6-carbonitrile]",< 100,100 to 1000,< 100
"CC(C)(C)CNc1nc(-c2cnc3ccc(C#N)cn23)ncc1N1CCNCC1 [Example 10, 3-{4-[(2,2-Dimethylpropyl)amino]-5-piperazin-1-ylpyrimidin-2-yl}imidazo[1,2-a]pyridine-6-carbonitrile]",< 100,> 1000,100 to 1000
"C[C@H](Nc1cncc(-c2cnc3ccc(C4CC4)cn23)n1)c1ccccc1 [Example 38, 6-(6-Cyclopropylimidazo[1,2-a]pyridin-3-yl)-N-[(1S)-1-phenylethyl]pyrazin-2-amine]",< 100,> 1000,100 to 1000
CC(C)(C)CNc1nc(-c2cnc3ccc(C#N)cn23)nc2ccccc12 [Example 25],100 to 1000,100 to 1000,100 to 1000
"CN(CC#N)C(=O)N1CCC[C@@H](Nc2ccnc(-c3cnc4ccc(F)cn34)n2)C1 [Example 68, (3R)—N-(Cyanomethyl)-3-{[2-(6-fluoroimidazo[1,2-a]pyridin-3-yl)pyrimidin-4-yl]amino}-N-methylpiperidine-1-carboxamide]",< 100,100 to 1000,< 100
"N#Cc1ccc(N2CCC[C@@H](Nc3ccnc(-c4cnc5ccc(C#N)cn45)n3)C2)nc1 [Example 57, 3-(4-{[(3R)-1-(5-Cyanopyridin-2-yl)piperidin-3-yl]amino}pyrimidin-2-yl)imidazo[1,2-a]pyridine-6-carbonitrile]",< 100,> 1000,< 100
"N#CCC(=O)N1CCCN(c2ccnc(-c3cnc4ccc(C#N)cn34)n2)CC1 [Example 82, 3-{4-[4-(Cyanoacetyl)-1,4-diazepan-1-yl]pyrimidin-2-yl}imidazo[1,2-a]pyridine-6-carbonitrile]",100 to 1000,> 1000,> 1000
"N#Cc1ccc2ncc(-c3nccc(N[C@H]4CC[C@H](O)CC4)n3)n2c1 [Example 22, 3-{4-[(Trans-4-hydroxycyclohexyl)amino]pyrimidin-2-yl}imidazo[1,2-a]pyridine-6-carbonitrile]",< 100,> 1000,< 100
"Cc1cnc(-c2cnc3ccc(F)cn23)nc1N[C@@H]1CCCN(C(=O)CC(F)(F)F)C1 [Example 80, 2-(6-Fluoroimidazo[1,2-a]pyridin-3-yl)-5-methyl-N-[(3R)-1-(3,3,3-trifluoropropanoyl)piperidin-3-yl]pyrimidin-4-amine]",< 100,< 100,< 100

# Continued, values first:
IC50 [1] [nM],IC50 [2] [nM],IC50 [3] [nM],SMILES
< 100,100 to 1000,> 1000,"CCN(CC)C(=O)[C@H]1CCCN1c1ccnc(-c2cnc3ccc(F)cn23)n1 [Example 92, (R)—N,N-Diethyl-1-(2-(6-fluoroimidazo[1,2-a]pyridin-3-yl)pyrimidin-4-yl)pyrrolidine-2-carboxamide]"
< 100,> 1000,< 100,"Fc1ccc2ncc(-c3nccc(N4CCCC4c4ccccn4)n3)n2c1 (stereo not drawn) [Example 90, 6-Fluoro-3-(4-(2-(pyridin-2-yl)pyrrolidin-1-yl)pyrimidin-2-yl)imidazo[1,2-a]pyridine]"
< 100,< 100,< 100,"N#Cc1cnc(N2CCC[C@@H](Nc3ccnc(-c4cnc5ccc(F)cn45)n3)C2)s1 [Example 131, (R)-2-(3-(2-(6-Fluoroimidazo[1,2-a]pyridin-3-yl)pyrimidin-4-ylamino)piperidin-1-yl)thiazole-5-carbonitrile]"
< 100,100 to 1000,100 to 1000,"N#CCC(=O)N1CCC[C@@H](Nc2cc(C(=O)O)nc(-c3cnc4ccc(F)cn34)n2)C1 [Example 181, (R)-6-(1-(2-Cyanoacetyl)piperidin-3-ylamino)-2-(6-fluoroimidazo[1,2-a]pyridin-3-yl)pyrimidine-4-carboxylic acid]"
< 100,> 1000,100 to 1000,"CS(=O)(=O)c1cnc(-c2cnc3ccc(F)cn23)nc1N[C@@H]1CCCN(C(=O)CC#N)C1 [Example 159, (R)-3-(3-(2-(6-Fluoroimidazo[1,2-a]pyridin-3-yl)-5-(methylsulfonyl)pyrimidin-4-ylamino)piperidin-1-yl)-3-oxopropanenitrile]"
< 100,100 to 1000,100 to 1000,"O=C([C@H](O)CO)N1CCC[C@@H](Nc2nc(-c3cnc4ccc(F)cn34)nc(N3CCOCC3)c2F)C1 [Example 185, (R)-1-((R)-3-(5-Fluoro-2-(6-fluoroimidazo[1,2-a]pyridin-3-yl)-6-morpholinopyrimidin-4-ylamino)piperidin-1-yl)-2,3-dihydroxypropan-1-one]"
< 100,100 to 1000,< 100,"CCC[C@H](Nc1nc(-c2cnc3ccc(F)cn23)ncc1C(N)=O)c1ccc(F)cc1 [Example 151, (S)-2-(6-Fluoroimidazo[1,2-a]pyridin-3-yl)-4-(1-(4-fluorophenyl)butylamino) pyrimidine-5-carboxamide]"
< 100,100 to 1000,100 to 1000,"C[C@@H](c1ccc(F)cn1)N(C)c1nc(-c2cnc3ccc(F)cn23)ncc1C(=O)O [Example 145, (S)-2-(6-Fluoroimidazo[1,2-a]pyridin-3-yl)-4-((1-(5-fluoropyridin-2-yl)ethyl)(methyl)amino)pyrimidine-5-carboxylic acid]"
< 100,100 to 1000,< 100,"N#CCC(=O)N1CCC[C@@H](Nc2cc(N3CCNCC3)nc(-c3cnc4ccc(F)cn34)n2)C1 [Example 166, (R)-3-(3-(2-(6-Fluoroimidazo[1,2-a]pyridin-3-yl)-6-(piperazin-1-yl)pyrimidin-4-ylamino)piperidin-1-yl)-3-oxopropanenitrile]"
< 100,< 100,< 100,"N#CCC(=O)N1CCC[C@@H](Nc2cc(OCCN3CCOCC3)nc(-c3cnc4ccc(F)cn34)n2)C1 [Example 175, (R)-3-(3-(2-(6-Fluoroimidazo[1,2-a]pyridin-3-yl)-6-(2-morpholinoethoxy)pyrimidin-4-ylamino)piperidin-1-yl)-3-oxopropanenitrile]"
< 100,> 1000,> 1000,"O=C(Cc1ccc(CO)cc1)N1CCC[C@@H](Nc2ccnc(-c3cnc4ccc(F)cn34)n2)C1 [Example 107, (R)-1-(3-(2-(6-Fluoroimidazo[1,2-a]pyridin-3-yl)pyrimidin-4-ylamino)piperidin-1-yl)-2-(4-(hydroxymethyl)phenyl)ethanone]"
< 100,100 to 1000,100 to 1000,N#CCC(=O)N1CCC[C@@H](Nc2cc(N3CCC[C@H]3C(=O)O)nc(-c3cnc4ccc(F)cn34)n2)C1 [Example 172]
100 to 1000,> 1000,> 1000,"CCCN1CC[C@@H](Nc2ccnc(-c3cnc4ccc(F)cn34)n2)C1=O [Example 89, (R)-3-(2-(6-Fluoroimidazo[1,2-a]pyridin-3-yl)pyrimidin-4-ylamino)-1-propyl pyrrolidin-2-one]"
< 100,> 1000,< 100,"N#CC[C@H]1CC[C@H](Nc2nc(-c3cnc4ccc(F)cn34)ncc2C(N)=O)CC1 [Example 153, 4-((1r,4r)-4-(Cyanomethyl)cyclohexylamino)-2-(6-fluoroimidazo[1,2-a]pyridin-3-yl)pyrimidine-5-carboxamide]"
< 100,< 100,< 100,"N#CCC(=O)N1CCC[C@@H](Nc2cc(N)nc(-c3cnc4ccc(F)cn34)n2)C1 [Example 183, (R)-3-(3-(6-Amino-2-(6-fluoroimidazo[1,2-a]pyridin-3-yl)pyrimidin-4-ylamino)piperidin-1-yl)-3-oxopropanenitrile]"
